{"source": "patent US20160220569A1", "about": "“CDK4/6 Inhibitor Dosage Formulations For The Protection Of Hematopoietic Stem And Progenitor Cells During Chemotherapy” (G1 Therapeutics, Inc., priority 2015, published 2016)", "test": "14-day oral gavage toxicokinetic study in rats", "type": "in vivo", "settings": "female, rat, plasma, po; for half-life: read-out: t½ (converted); for concentration at 0.5 h / concentration at 2 h / concentration at 4 h / concentration at 8 h / concentration at 12 h / concentration at 24 h / concentration at 1 h / concentration at […]: rats", "protocol": "Plasma was obtained from blood samples collected from rats in a composite sampling scheme, with 3 samples collected per sex, per dose, at each target collection time, as illustrated in Table 21 to Table 25. Samples were collected from the vehicle control group on Day 1 and Day 14 at 3 hour after administration. […] Blood samples were collected in tubes containing K3EDTA as an anticoagulant and placed on ice until processed to plasma via centrifugation. Samples were stored frozen at −80° C. until shipment to the bioanalytical laboratory for analysis.\nThe following parameters were determined:\nCmax: Maximum observed plasma concentration (ng/mL).\nA value of 0 ng/mL was assigned to all values below the lower limit of quantitation (BLQ, <10.0 ng/mL).\nAUC(0-inf): Area under the plasma concentration vs. time curve extrapolated from 0 to infinity (ng*h/mL), calculated as AUC(0-t)+AUC(t-inf) where AUC(t-inf) is calculated as last measurable concentration (CLast) divided by ke, where ke is the elimination rate constant determined by linear regression of the last three analytically measured points on the log plasma concentration vs. time curve. The selection criteria of the data points for inclusion in the calculation of ke required that at least three data points representing the terminal phase (after Tmax) were regressed and that R2≧0.850 when rounded.\nCL: Clearance (L/h/kg), calculated as the dose divided by AUC(0-t).\nVd: Volume of distribution (L/kg), calculated as dose divided by the product of ke and AUC(0-inf).\nVdss: Steady state volume of distribution (L/kg), calculated as clearance […] mean residence time, where mean residence time is calculated as the area under the first moment curve divided by AUC(0-t).\nt½: Elimination half-life (h), calculated as ln(2)/ke, where ke is the elimination rate constant determined by linear regression. Half-life was defined as not determined if regression criteria (specified in AUC(0-inf) above) were not met.\nCmax/Dose: Normalized Cmax, calculated as Cmax divided by total dose.\nAUC/Dose: Normalized AUC, calculated as AUC(0-t) divided by total dose.\nii. Statistical Analysis Mean and standard deviation (SD) were calculated in Watson. Values of BLQ were assigned a value of 0 ng/mL for mean calculations. Concentration values and derived TK parameters were reported to three significant figures.", "key": {"[1]": {"settings": "5 mg/kg, oral 5 mg/kg, Study Day 14, Female"}, "[2]": {"settings": "15 mg/kg, oral 15 mg/kg, Study Day 1, Female"}, "[3]": {"settings": "15 mg/kg, oral 15 mg/kg, Study Day 14, Female"}}, "note": "Where two headings read alike, the source gives them in different places.", "data": [{"smiles": "CN1CCN(c2ccc(Nc3ncc4cc5n(c4n3)C3(CCCCC3)CNC5=O)nc2)CC1", "note": "[Compound 1, 2′-((5-(4-methylpiperazin-1-yl)pyridin-2-yl)amino)-7′,8′-dihydro-6′H-spiro[cyclohexane-1,9′-pyrazino[1′,2′:1,5]pyrrolo[2,3-d]pyrimidin]-6′-one]", "values": [{"measurement": "Tmax", "setting": "[1]", "result": 1, "unit": "h"}, {"measurement": "half-life", "setting": "[1]", "result": 265, "unit": "min"}, {"measurement": "concentration at 0.5 h", "setting": "15 mg/kg, Individual Compound 1 Plasma Concentration, daily oral 15 mg/kg, Day 1, Female, 0.5 h", "result": 1050, "unit": "ng/mL"}, {"measurement": "concentration at 2 h", "setting": "15 mg/kg, Individual Compound 1 Plasma Concentration, daily oral 15 mg/kg, Day 1, Female, 2 h", "result": 1820, "unit": "ng/mL"}, {"measurement": "concentration at 4 h", "setting": "15 mg/kg, Individual Compound 1 Plasma Concentration, daily oral 15 mg/kg, Day 1, Female, 4 h", "result": 1750, "unit": "ng/mL"}, {"measurement": "concentration at 8 h", "setting": "15 mg/kg, Individual Compound 1 Plasma Concentration, daily oral 15 mg/kg, Day 1, Female, 8 h", "result": 1250, "unit": "ng/mL"}, {"measurement": "concentration at 12 h", "setting": "15 mg/kg, Individual Compound 1 Plasma Concentration, daily oral 15 mg/kg, Day 1, Female, 12 h", "result": 1010, "unit": "ng/mL"}, {"measurement": "concentration at 24 h", "setting": "15 mg/kg, Individual Compound 1 Plasma Concentration, daily oral 15 mg/kg, Day 1, Female, 24 h", "result": 63.9, "unit": "ng/mL"}, {"measurement": "concentration at 0.5 h", "setting": "15 mg/kg, Individual Compound 1 Plasma Concentration, daily oral 15 mg/kg, Day 14, Female, 0.5 h", "result": 908, "unit": "ng/mL"}, {"measurement": "concentration at 1 h", "setting": "15 mg/kg, Individual Compound 1 Plasma Concentration, daily oral 15 mg/kg, Day 14, Female, 1 h", "result": 1410, "unit": "ng/mL"}, {"measurement": "concentration at 4 h", "setting": "15 mg/kg, Individual Compound 1 Plasma Concentration, daily oral 15 mg/kg, Day 14, Female, 4 h", "result": 1580, "unit": "ng/mL"}, {"measurement": "concentration at 8 h", "setting": "15 mg/kg, Individual Compound 1 Plasma Concentration, daily oral 15 mg/kg, Day 14, Female, 8 h", "result": 996, "unit": "ng/mL"}, {"measurement": "concentration at 12 h", "setting": "15 mg/kg, Individual Compound 1 Plasma Concentration, daily oral 15 mg/kg, Day 14, Female, 12 h", "result": 1060, "unit": "ng/mL"}, {"measurement": "concentration at 24 h", "setting": "15 mg/kg, Individual Compound 1 Plasma Concentration, daily oral 15 mg/kg, Day 14, Female, 24 h", "result": 106, "unit": "ng/mL"}, {"measurement": "concentration at […]", "setting": "15 mg/kg, Individual Compound 1 Plasma Concentration, daily oral 15 mg/kg, Day 14, Female, […]", "result": 117, "unit": "ng/mL"}, {"measurement": "concentration at 0.5 h", "setting": "15 mg/kg, Mean Compound 1 Plasma Concentration, oral 15 mg/kg, Day 1, 0.5 h, Female", "result": 1180, "unit": "ng/mL"}, {"measurement": "concentration at 1 h", "setting": "15 mg/kg, Mean Compound 1 Plasma Concentration, oral 15 mg/kg, Day 1, 1 h, Female", "result": 1530, "unit": "ng/mL"}, {"measurement": "concentration at 2 h", "setting": "15 mg/kg, Mean Compound 1 Plasma Concentration, oral 15 mg/kg, Day 1, 2 h, Female", "result": 1910, "unit": "ng/mL"}, {"measurement": "concentration at 4 h", "setting": "15 mg/kg, Mean Compound 1 Plasma Concentration, oral 15 mg/kg, Day 1, 4 h, Female", "result": 1690, "unit": "ng/mL"}, {"measurement": "concentration at 8 h", "setting": "15 mg/kg, Mean Compound 1 Plasma Concentration, oral 15 mg/kg, Day 1, 8 h, Female", "result": 1440, "unit": "ng/mL"}, {"measurement": "concentration at 12 h", "setting": "15 mg/kg, Mean Compound 1 Plasma Concentration, oral 15 mg/kg, Day 1, 12 h, Female", "result": 916, "unit": "ng/mL"}, {"measurement": "concentration at 24 h", "setting": "15 mg/kg, Mean Compound 1 Plasma Concentration, oral 15 mg/kg, Day 1, 24 h, Female", "result": 84.5, "unit": "ng/mL"}, {"measurement": "concentration at […]", "setting": "15 mg/kg, Mean Compound 1 Plasma Concentration, oral 15 mg/kg, Day 1, […], Female", "result": 109, "unit": "ng/mL"}, {"measurement": "concentration at 0.5 h", "setting": "15 mg/kg, Mean Compound 1 Plasma Concentration, oral 15 mg/kg, Day 14, 0.5 h, Female", "result": 1170, "unit": "ng/mL"}, {"measurement": "concentration at 1 h", "setting": "15 mg/kg, Mean Compound 1 Plasma Concentration, oral 15 mg/kg, Day 14, 1 h, Female", "result": 1450, "unit": "ng/mL"}, {"measurement": "concentration at 2 h", "setting": "15 mg/kg, Mean Compound 1 Plasma Concentration, oral 15 mg/kg, Day 14, 2 h, Female", "result": 1490, "unit": "ng/mL"}, {"measurement": "concentration at 4 h", "setting": "15 mg/kg, Mean Compound 1 Plasma Concentration, oral 15 mg/kg, Day 14, 4 h, Female", "result": 1570, "unit": "ng/mL"}, {"measurement": "concentration at 8 h", "setting": "15 mg/kg, Mean Compound 1 Plasma Concentration, oral 15 mg/kg, Day 14, 8 h, Female", "result": 979, "unit": "ng/mL"}, {"measurement": "concentration at 12 h", "setting": "15 mg/kg, Mean Compound 1 Plasma Concentration, oral 15 mg/kg, Day 14, 12 h, Female", "result": 805, "unit": "ng/mL"}, {"measurement": "concentration at 24 h", "setting": "15 mg/kg, Mean Compound 1 Plasma Concentration, oral 15 mg/kg, Day 14, 24 h, Female", "result": 130, "unit": "ng/mL"}, {"measurement": "concentration at […]", "setting": "15 mg/kg, Mean Compound 1 Plasma Concentration, oral 15 mg/kg, Day 14, […], Female", "result": 131, "unit": "ng/mL"}, {"measurement": "AUC(0-inf)", "setting": "[2]", "result": 23700, "unit": "ng·h/mL"}, {"measurement": "AUC(0-t)", "setting": "[2]", "result": 23200, "unit": "ng·h/mL"}, {"measurement": "Cmax", "setting": "[2]", "result": 1910, "unit": "ng/mL"}, {"measurement": "Tmax", "setting": "[2]", "result": 2, "unit": "h"}, {"measurement": "AUC(0-inf)", "setting": "[3]", "result": 20800, "unit": "ng·h/mL"}, {"measurement": "AUC(0-t)", "setting": "[3]", "result": 19800, "unit": "ng·h/mL"}, {"measurement": "Cmax", "setting": "[3]", "result": 1570, "unit": "ng/mL"}, {"measurement": "Tmax", "setting": "[3]", "result": 4, "unit": "h"}, {"measurement": "half-life", "setting": "[3]", "result": 314, "unit": "min"}, {"measurement": "concentration at 0.5 h", "setting": "30 mg/kg, Individual Compound 1 Plasma Concentration, daily oral 30 mg/kg, Day 1, Female, 0.5 h", "result": 2030, "unit": "ng/mL"}, {"measurement": "concentration at 1 h", "setting": "30 mg/kg, Individual Compound 1 Plasma Concentration, daily oral 30 mg/kg, Day 1, Female, 1 h", "result": 2500, "unit": "ng/mL"}, {"measurement": "concentration at 2 h", "setting": "30 mg/kg, Individual Compound 1 Plasma Concentration, daily oral 30 mg/kg, Day 1, Female, 2 h", "result": 3440, "unit": "ng/mL"}, {"measurement": "concentration at 4 h", "setting": "30 mg/kg, Individual Compound 1 Plasma Concentration, daily oral 30 mg/kg, Day 1, Female, 4 h", "result": 2570, "unit": "ng/mL"}, {"measurement": "concentration at 8 h", "setting": "30 mg/kg, Individual Compound 1 Plasma Concentration, daily oral 30 mg/kg, Day 1, Female, 8 h", "result": 2480, "unit": "ng/mL"}, {"measurement": "concentration at 12 h", "setting": "30 mg/kg, Individual Compound 1 Plasma Concentration, daily oral 30 mg/kg, Day 1, Female, 12 h", "result": 2000, "unit": "ng/mL"}, {"measurement": "concentration at 24 h", "setting": "30 mg/kg, Individual Compound 1 Plasma Concentration, daily oral 30 mg/kg, Day 1, Female, 24 h", "result": 310, "unit": "ng/mL"}, {"measurement": "concentration at […]", "setting": "30 mg/kg, Individual Compound 1 Plasma Concentration, daily oral 30 mg/kg, Day 1, Female, […]", "result": 114, "unit": "ng/mL"}, {"measurement": "concentration at 0.5 h", "setting": "30 mg/kg, Individual Compound 1 Plasma Concentration, daily oral 30 mg/kg, Day 14, Female, 0.5 h", "result": 1450, "unit": "ng/mL"}, {"measurement": "concentration at 1 h", "setting": "30 mg/kg, Individual Compound 1 Plasma Concentration, daily oral 30 mg/kg, Day 14, Female, 1 h", "result": 2740, "unit": "ng/mL"}, {"measurement": "concentration at 2 h", "setting": "30 mg/kg, Individual Compound 1 Plasma Concentration, daily oral 30 mg/kg, Day 14, Female, 2 h", "result": 2170, "unit": "ng/mL"}, {"measurement": "concentration at 4 h", "setting": "30 mg/kg, Individual Compound 1 Plasma Concentration, daily oral 30 mg/kg, Day 14, Female, 4 h", "result": 2700, "unit": "ng/mL"}, {"measurement": "concentration at 8 h", "setting": "30 mg/kg, Individual Compound 1 Plasma Concentration, daily oral 30 mg/kg, Day 14, Female, 8 h", "result": 1970, "unit": "ng/mL"}, {"measurement": "concentration at 12 h", "setting": "30 mg/kg, Individual Compound 1 Plasma Concentration, daily oral 30 mg/kg, Day 14, Female, 12 h", "result": 2290, "unit": "ng/mL"}, {"measurement": "concentration at 24 h", "setting": "30 mg/kg, Individual Compound 1 Plasma Concentration, daily oral 30 mg/kg, Day 14, Female, 24 h", "result": 280, "unit": "ng/mL"}]}]}
